Like-named read-outs stand apart in the source and are kept apart here.
Tests used:
[1] = test system: Mycobacterium smegmatis; assay: Storage stability of bleomycin sulfate solutions, potency by microbial agar diffusion assay; format: physicochemical; set-up: first-order degradation rate constant k: unit not given here; settings: for % of Initial Drug Remaining (Potency): 3 U/mL in SWFI, RT
Method: As used herein, "stable" or "stabilizing" refers to the retention of potency of a bleomycin solution in the range of about 90-120% of its initial starting potency. Potency refers to the amount of antimicrobial activity of the bleomycin solution as determined by microbial assay and is expressed in units of activity. One unit of bleomycin is equivalent in activity to 1 mg of bleomycin A2 reference standard. A2 reference standards are well known to those of ordinary skill in the art and may be purchased from a variety of commercial suppliers. […] The assay is performed as follows:
ii. Plates for potency assay: The number of plates required per assay is dependent on the number of samples to be tested. For all tests, at least 12 plates are required to establish a standard response line (see "Standard Response Line Solutions" below) and at least 3 plates are required to determine the potency of each test sample. Plates for potency testing are prepared by evenly distributing a 10 mL base layer of melted Medium 35 to an appropriate number of plastic or glass Petri dishes (20 by 100 millimeters). The layer of base agar medium is poured into each plate on a flat level surface, and a cover placed on each plate in turn; if a nonporous cover is used, the cover is left slightly ajar to prevent accumulation of condensing moisture from the hot agar base layer. After the agar hardens, the nonporous cover is seated on each plate. To prepare the seed layer, an amount of test organism suspension (see "Test Organism Suspension" below) is added to a sufficient amount of Medium 35 (which has been melted and cooled to 48° C.-50° C.) to equal a ratio of 1 mL suspension for each 100 mL of medium. The flask is swirled to obtain a homogeneous suspension, and 6 mL of suspension then added to each of the plates containing the uninoculated base agar. The seed layer is spread evenly over the agar surface, covered and allowed to harden on a flat, level surface. After the agar has hardened, 6 cylinders (stainless steel with an outside diameter of 8 millimeters (±0.1 millimeter), an inside diameter of 6 millimeters (±0.1 millimeter), and a length of 10 millimeters (±0.1 millimeter)) are placed on the inoculated agar surface so that they are at approximately 60° intervals on a 2.8 centimeter radius.
c. Test Organism Suspension: Test organism, Mycobacterium smegmatis (Cat. #607 from the American Type Culture Collection, 12301 Parklawn Dr., Rockville, Md. 20852 ) is maintained on agar slants containing 10 mL of Medium 36 as described above and transferred to a fresh slant about once a week. Slants are Incubated at 37° C. for 48 hours immediately after transfer. To prepare the test organism suspension, 3 mL of sterile USP saline T.S., is used to wash the growth from the agar slant into a 500-mL Edenmeyer flask containing 100 mL of Medium 34 and 50 gm of glass beads. The culture is agitated by rotation at a speed of 130 cycles per minute and a radius of 3.5 centimeters at 37° C. for 5 days. The test organism suspension is stored under refrigeration for a period of up to 2 weeks.
ii. Working Standard Stock Solution: The working standard of bleomycin is prepared as follows: In an atmosphere of about 10 percent relative humidity, about 100 milligrams of a fine powder of the drug is transferred to a tared weighing bottle equipped with a ground-glass stopper. The bottle is weighed and placed in a vacuum oven, with the stopper tilted on its side so that there is no closure during the drying period. The drug is dried at a temperature of 25° C. and a pressure of 5 millimeters of mercury or less for 4 hours. At the end of the drying period, the vacuum oven is filled with air that has been dried by passing it through a drying agent such as sulfuric acid or silica gel. The stopper is replaced and the weighing bottle placed in a desiccator over a desiccating agent, such as phosphorous pentoxide or silica gel, allowed to cool to room temperature, and reweighed.

[2] = cited from earlier work
[3] = 0.1M citrate buffer, 5° C., 3 mo.
[4] = 0.1M citrate buffer, 25° C., 2 mo.
[5] = 0.1M citrate buffer, 25° C., 3 mo.
[6] = 0.1M citrate buffer, 40° C., 1 mo.
[7] = 0.1M citrate buffer, 40° C., 2 mo.
[8] = 0.1M citrate buffer, 40° C., 3 mo.

For bleomycin sulfate, the “% Potency Remaining” value [1, 3] was 107.3%, the Potency [1, 3] was 16.51 units per vial and the “% Potency Remaining” value [1, 4] was 104.1%. For the same substance, the Potency [1, 4] was 16.02 units per vial, the “% Potency Remaining” value [1, 5] was 95.2% and the Potency [1, 5] was 14.65 units per vial. For the same substance, the “% Potency Remaining” value [1, 6] was 87.1%, the Potency [1, 6] was 13.40 units per vial and the “% Potency Remaining” value [1, 7] was 83.1%. The Potency [1, 7] was 12.79 units per vial, the “% Potency Remaining” value [1, 8] was 59.3% and the Potency [1, 8] was 9.13 units per vial. The “starting concentration (initial potency)” value ([1]; 0.1M citrate buffer) was 15.39 units per vial, the “% of Initial Drug Remaining (Potency)” value ([1]; 0 months) was 100.0% and the “% of Initial Drug Remaining (Potency)” value ([1]; 24 months) was 48.0%. For the same substance, the “% Potency Remaining” value ([1]; SWFI, 5° C., 3 mo.) was 105.0%, the Potency ([1]; SWFI, 5° C., 3 mo.) was 16.37 units per vial and the “% Potency Remaining” value ([1]; SWFI, 25° C., 2 mo.) was 105.1%. For the same substance, the Potency ([1]; SWFI, 25° C., 2 mo.) was 16.38 units per vial, the “% Potency Remaining” value ([1]; SWFI, 25° C., 3 mo.) was 101.5% and the Potency ([1]; SWFI, 25° C., 3 mo.) was 15.82 units per vial. The “% Potency Remaining” value ([1]; SWFI, 40° C., 1 mo.) was 96.1%, the Potency ([1]; SWFI, 40° C., 1 mo.) was 14.97 units per vial and the “% Potency Remaining” value ([1]; SWFI, 40° C., 2 mo.) was 97.7%. The Potency ([1]; SWFI, 40° C., 2 mo.) was 15.22 units per vial, the “% Potency Remaining” value ([1]; SWFI, 40° C., 3 mo.) was 63.4% and the Potency ([1]; SWFI, 40° C., 3 mo.) was 9.88 units per vial. For the same substance, the “starting concentration (initial potency)” value ([1]; SWFI) was 15.58 units per vial, the decrease of potency ([1]; citrate buffer solution, 3 months storage at 40° C.) was about 40% and the “decrease in stability” value ([1]; citrate solutions, 25° C. and 5° C., 3 months storage) was “little if any, decrease in stability”.
In the case of bleomycin, the “time stable, reconstituted solutions” value ([2]; 2° C.-8° C.) is given as 4 weeks, the “stability in ointment base” value ([2]; in dermabase or tincture of benzoin) is given as “quite unstable” and the loss of activity ([2]; in petrolatum ointment base, in two years) is given as 7%. For the same substance, the “time stable in solution” value ([2]; in saline (Dorr et al.)) was “up to seven”, the claimed stability time ([2]; multidose premix in sodium chloride, under refrigeration) was 100 days and the “time stable, reconstituted solutions” value ([2]; room temperature) was 2 weeks. For the same substance, the “shelf-life t90% (time required to reach 90% of the initial potency)” value ([1]; solution in SWFI at RT, estimated from k) was about 3.44 months and the “first-order degradation rate constant k” value ([1]; solution in SWFI at RT, from 24 month data) was about 0.03058.

— patent US5674837A, “Stable bleomycin sulfate solution suitable for injection” (Abbott Laboratories, priority 1994, dated 1997)
